Source: PMC12254379, “Artesunate induces ferroptosis in diffuse large B-cell lymphoma cells by targeting PRDX1 and PRDX2” (Cell Death & Disease, 2025)

Columns and labels:
[1] = biological target: T1, rhPRDX2 (PRDX2) (Homo sapiens, UniProt P32119); assay: intrinsic fluorescence titration, Hill plot; assay type: binding
T1 construct: pET28a His-tagged, expressed in E. coli Rosetta, His-purified; decamer in docking model; endogenous protein of U2932 lysate in the Biotin-ART pull-down
T1 sequence (P32119 2-198): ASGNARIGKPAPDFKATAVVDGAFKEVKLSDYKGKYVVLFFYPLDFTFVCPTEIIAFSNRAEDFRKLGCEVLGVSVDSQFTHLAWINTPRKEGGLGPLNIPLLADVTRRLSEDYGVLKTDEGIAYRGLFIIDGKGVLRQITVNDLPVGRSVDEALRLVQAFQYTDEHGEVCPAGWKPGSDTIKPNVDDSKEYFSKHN

[2] = biological target: T1, rhPRDX2 (PRDX2); assay: CD thermal denaturation; assay type: binding; settings: 10 μM protein, 1 mM ART, 20 mM Tris-HCl
[3] = biological target: T2, rhPRDX1 (PRDX1) (Homo sapiens, UniProt Q06830); assay: intrinsic fluorescence titration, Hill plot; assay type: binding
T2 construct: pET28a His-tagged, expressed in E. coli BL21, His-purified; homodimer in docking model; endogenous protein of U2932 lysate in the Biotin-ART pull-down
T2 sequence (Q06830 2-199): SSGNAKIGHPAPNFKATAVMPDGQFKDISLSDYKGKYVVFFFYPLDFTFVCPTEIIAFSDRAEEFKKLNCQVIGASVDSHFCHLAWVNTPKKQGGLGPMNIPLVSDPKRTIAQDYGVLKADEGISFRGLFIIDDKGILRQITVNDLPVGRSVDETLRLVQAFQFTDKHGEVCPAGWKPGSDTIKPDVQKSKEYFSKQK

[4] = biological target: T2, rhPRDX1 (PRDX1); assay: H2O2 reduction assay, residual H2O2 kit; assay type: biochemical; settings: 20 μM protein, 30 min preincubation, 100 μM H2O2, RT

SMILES: C[C@H]1[C@H](OC(=O)CCC(=O)O)O[C@@H]2O[C@@]3(C)CC[C@H]4[C@H](C)CC[C@@H]1[C@@]24OO3 [Artesunate]
- Kd [1]: 5.24 µM
- Tm (without to with ART) [2]: 57 to 61 °C
- Kd [3]: 6.1 µM
- H2O2 reduction assay, residual H2O2 kit [4]: ART suppressed the peroxidase activity of rhPRDX1 and rhPRDX2 in a dose-dependent manner
